Where two headings read alike, the source gives them in different places.
Legend:
CDK2/Cyclin E = target: T1, CDK2/Cyclin E (Homo sapiens, UniProt P24941); experiment: Enzymatic phosphorylation activity assay (Caliper mobility shift), CDK2/Cyclin E; type: biochemical
T1 construct: purchased Eurofins 14-475
Protocol: (§1) Inhibitory effects of the compounds of the disclosure were measured in biochemical assays that measure the enzymatic phosphorylation activity of CDK enzyme in complex of Cyclin proteins phosphorylates 7.5 micromolar fluorescently labelled peptide substrate, 5-FAM-QSPKKG-CONH2, (FL-Peptide 18, Perkin Elmer, 760362) in the presence of adenosine-5′-triphosphate (ATP) and varying concentrations of the test compound in 100 mM 2-[4-(2-hydroxyethyl)piperazin-1-yl] ethanesulfonic acid (HEPES), pH 7.5, 10 mM MgCl2, 0.015% Brij-35, 1 mM dithiothreitol (DTT), 1.0% dimehylsulfoxide (DMSO). […] Reactions proceeded until between 10% to 20% total peptides were phosphorylated at room temperature (25° C.) and were terminated with 35 mM 2,2′,2″,2″-(ethane-1,2-diyldinitrilo)tetraacetic acid (EDTA). Product was detected using the Caliper mobility shift detection method where the phosphorylated peptide (product) and substrate were electrophoretically separated and measured. Percent activity was plotted against log concentration of compound and points to generate an apparent IC50. The following CDK enzymes in complex with different cyclin proteins were used in these assays: • CDK1/Cyclin B1, GST-tag (BPS, 40454), 1.5 nM used in the assay • CDK2/Cyclin E (Eurofins, 14-475), 1.25 nM used in the assays

CDK1/Cyclin B1, GST-tag = target: T2, CDK1/Cyclin B1, GST-tag (Homo sapiens, UniProt P06493); experiment: Enzymatic phosphorylation activity assay (Caliper mobility shift), CDK1/Cyclin B1; type: biochemical
T2 construct: GST; purchased BPS 40454
Protocol: as §1

CDK2/Cyclin E1 = target: T3, CDK2/Cyclin E1 (Homo sapiens, UniProt P24941); experiment: NanoBRET cellular target engagement assay, CDK2/Cyclin E1 in HEK-293 cells; type: cell-based; conditions: HEK-293 cells transfected with CDK2-NanoLuc and CCNE1; tracer K10 0.5 μM; 2 hrs
T3 construct: NV2641; host or cells: HEK-293
Protocol: (§2) In the assay, HEK-293 cells were cultured to appropriate confluence before being transiently transfected with a mix of CDK2-NanoLuc® Fusion Vector (Promega, NV2781) and CCNE1 expression vector (Promega, NV2641) for CDK2 NanoBRET assays, or CDK1-NanoLuc® Fusion Vector (Promega, NV2701) and CCNB1 expression vector (Promega, NV2601) for CDK1 NanoBRET assay, by using lipid: DNA complexes formed with FuGENE HD transfection agent (Promega, E2311). The transfected cells were cultured overnight in 1% FBS Opti-MEM media to allow the expression to fully occur. Once the expression fully occurred, varying concentrations of the test compounds were added to the cells, before a cell-permeable, fluorescent tracer (tracer K10 from Promega, N2840) was added to achieve final tracer concentration of 0.5 μM. After the addition of Nano-Glo substrate (part of a kit, Promega, N2840) and Extracellular NanoLuc inhibitor (part of a kit, Promega, N2840) 2 hrs after tracer addition, the cellular engagement of the tracer and the competition with testing compounds to the target protein was assessed based on the resulting bioluminescence resonance energy transfer (BRET) signal. BRET ratio was generated by dividing the acceptor emission signal (610 nm) by the donor emission signal (450 nm) for each sample. […] All IC50 curves were calculated using a 4 parameter logistic nonlinear regression model.

CDK1/Cyclin B = target: T4, CDK1/Cyclin B (Homo sapiens, UniProt P06493); experiment: NanoBRET cellular target engagement assay, CDK1/Cyclin B in HEK-293 cells; type: cell-based; conditions: HEK-293 cells transfected with CDK1-NanoLuc and CCNB1; tracer K10 0.5 μM; 2 hrs
T4 construct: NV2601; host or cells: HEK-293
Protocol: as §2

[1] = read-out: Enzyme CDK2/cyclin E IC50
[2] = read-out: Enzyme CDK1/cyclin B1 IC50

T4 sequence (P06493 whole entry): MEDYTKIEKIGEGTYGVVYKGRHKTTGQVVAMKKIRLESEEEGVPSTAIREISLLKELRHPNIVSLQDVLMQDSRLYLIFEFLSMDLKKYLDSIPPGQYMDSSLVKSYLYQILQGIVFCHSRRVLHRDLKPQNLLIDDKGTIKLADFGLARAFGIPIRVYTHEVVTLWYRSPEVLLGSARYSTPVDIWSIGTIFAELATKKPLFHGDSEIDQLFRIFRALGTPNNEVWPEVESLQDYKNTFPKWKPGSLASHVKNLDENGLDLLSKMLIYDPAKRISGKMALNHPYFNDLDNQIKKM
T4 sequence (P14635 whole entry partner): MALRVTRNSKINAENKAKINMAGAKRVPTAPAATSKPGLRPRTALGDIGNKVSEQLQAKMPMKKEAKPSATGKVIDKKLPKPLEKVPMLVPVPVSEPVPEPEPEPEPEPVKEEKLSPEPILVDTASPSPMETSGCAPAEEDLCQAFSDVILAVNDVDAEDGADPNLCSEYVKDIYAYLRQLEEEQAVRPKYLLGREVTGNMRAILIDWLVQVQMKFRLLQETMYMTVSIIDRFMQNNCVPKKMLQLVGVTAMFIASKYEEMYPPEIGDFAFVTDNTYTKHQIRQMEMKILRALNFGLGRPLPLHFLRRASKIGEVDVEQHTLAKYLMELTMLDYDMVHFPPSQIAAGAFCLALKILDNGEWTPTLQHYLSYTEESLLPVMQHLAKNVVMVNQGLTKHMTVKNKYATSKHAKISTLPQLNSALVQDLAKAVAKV
T2 sequence (P06493 whole entry): as the sequence (P06493 whole entry) above
T2 sequence (P14635 whole entry partner): as the sequence (P14635 whole entry partner) above

Compound | IC50 (CDK2/Cyclin E1) [nM] | IC50 (CDK1/Cyclin B) [nM] | also measured
CC(C)c1cc(Nc2cnc3ccn([C@H](C)c4cccnc4)c3n2)n[nH]1 [Example 4, (R)—N-(5-isopropyl-1H-pyrazol-3-yl)-5-(1-(pyridin-3-yl)ethyl)-5H-pyrrolo[2,3-b]pyrazin-3-amine] |  |  | IC50 (CDK2/Cyclin E; [1]): 0.31 nM; IC50 (CDK1/Cyclin B1, GST-tag; [2]): 54 nM
O[C@H]1CC[C@H](n2ccc3ncc(Nc4cc(OC(F)F)[nH]n4)nc32)CC1 [Example 12, (1r,4r)-4-(3-((5-(difluoromethoxy)-1H-pyrazol-3-yl)amino)-5H-pyrrolo[2,3-b]pyrazin-5-yl)cyclohexan-1-ol] | 1.1 | 347 | 
(S)-7-chloro-N-(5-isopropyl-1H-pyrazol-3-yl)-5-(1-(pyridin-3-yl)ethyl)-5H-pyrrolo[2,3-b]pyrazin-3-amine [Example 6] |  |  | IC50 (CDK2/Cyclin E; apparent IC50, 1.25 nM enzyme, 7.5 micromolar FL-Peptide 18, 1.0 mM ATP or ATP Km, 25° C.): 2.23 nM; IC50 (CDK1/Cyclin B1, GST-tag; apparent IC50, 1.5 nM enzyme, 7.5 micromolar FL-Peptide 18, 1.0 mM ATP or ATP Km, 25° C.): 869 nM
CN1CCC(Cn2ccc3ncc(Nc4cc(OC(F)F)[nH]n4)nc32)CC1 [Example 8, N-(5-(difluoromethoxy)-1H-pyrazol-3-yl)-5-((1-methylpiperidin-4-yl)methyl)-5H-pyrrolo[2,3-b]pyrazin-3-amine] | 162 | > 10000 | 
N#Cc1cc(Nc2cnc3ccn(Cc4cccnc4)c3n2)n[nH]1 [Example 20, 3-((5-(pyridin-3-ylmethyl)-5H-pyrrolo[2,3-b]pyrazin-3-yl)amino)-1H-pyrazole-5-carbonitrile] | 112 | 7560 | 
FC(F)Oc1cc(Nc2cnc3ccn(C[C@@H]4CCCNC4)c3n2)n[nH]1 [Example 27, (R)—N-(5-(difluoromethoxy)-1H-pyrazol-3-yl)-5-(piperidin-3-ylmethyl)-5H-pyrrolo[2,3-b]pyrazin-3-amine] | 16.9 | 3580 | 
FC(F)Oc1cc(Nc2cnc3ccn(CC4CCOCC4)c3n2)n[nH]1 [Example 2, N-(5-(difluoromethoxy)-1H-pyrazol-3-yl)-5-((tetrahydro-2H-pyran-4-yl)methyl)-5H-pyrrolo[2,3-b]pyrazin-3-amine] |  |  | IC50 (CDK2/Cyclin E; [1]): 0.71 nM; IC50 (CDK1/Cyclin B1, GST-tag; [2]): 163 nM
CC(C)c1cc(Nc2cnc3ccn([C@@H](C)c4cccnc4)c3n2)n[nH]1 [Example 3, (S)—N-(5-isopropyl-1H-pyrazol-3-yl)-5-(1-(pyridin-3-yl)ethyl)-5H-pyrrolo[2,3-b]pyrazin-3-amine] |  |  | IC50 (CDK2/Cyclin E; [1]): 0.03 nM; IC50 (CDK1/Cyclin B1, GST-tag; [2]): 40 nM
CN1CCC[C@H](Cn2ccc3ncc(Nc4cc(OC(F)F)[nH]n4)nc32)C1 [Example 10, (S)—N-(5-(difluoromethoxy)-1H-pyrazol-3-yl)-5-((1-methylpiperidin-3-yl)methyl)-5H-pyrrolo[2,3-b]pyrazin-3-amine] | 6 | 3210 | 
c1cnnc(Cn2ccc3ncc(Nc4cc(C5COC5)[nH]n4)nc32)c1 [Example 23, N-(5-(oxetan-3-yl)-1H-pyrazol-3-yl)-5-(pyridazin-3-ylmethyl)-5H-pyrrolo[2,3-b]pyrazin-3-amine] | 110 | 1300 | 
FC(F)Oc1cc(Nc2cnc3ccn(CC4CCNCC4)c3n2)n[nH]1 [Example 7, N-(5-(difluoromethoxy)-1H-pyrazol-3-yl)-5-(piperidin-4-ylmethyl)-5H-pyrrolo[2,3-b]pyrazin-3-amine] | 1130 | > 10000 | 
C[C@@H](CO)Cn1ccc2ncc(Nc3cc(OC(F)F)[nH]n3)nc21 [Example 15, (R)-3-(3-((5-(difluoromethoxy)-1H-pyrazol-3-yl)amino)-5H-pyrrolo[2,3-b]pyrazin-5-yl)-2-methylpropan-1-ol] | 8.8 | 7460 | 
c1cncc(Cn2ccc3ncc(Nc4cc(C5COC5)[nH]n4)nc32)c1 [Example 16, N-(5-(oxetan-3-yl)-1H-pyrazol-3-yl)-5-(pyridin-3-ylmethyl)-5H-pyrrolo[2,3-b]pyrazin-3-amine] | 10.9 | 291 | 
Cc1cc(Nc2cnc3ccn(Cc4cccnn4)c3n2)n[nH]1 [Example 24, N-(5-methyl-1H-pyrazol-3-yl)-5-(pyridazin-3-ylmethyl)-5H-pyrrolo[2,3-b]pyrazin-3-amine] | 105 | 3820 | 
FC(F)Oc1cc(Nc2cnc3ccn(Cc4cccnn4)c3n2)n[nH]1 [Example 13, N-(5-(difluoromethoxy)-1H-pyrazol-3-yl)-5-(pyridazin-3-ylmethyl)-5H-pyrrolo[2,3-b]pyrazin-3-amine] | 7.4 | 898 | 
COc1cc(Nc2cnc3ccn(C[C@H]4CCCN(C)C4)c3n2)n[nH]1 [Example 21, (S)—N-(5-methoxy-1H-pyrazol-3-yl)-5-((1-methylpiperidin-3-yl)methyl)-5H-pyrrolo[2,3-b]pyrazin-3-amine] | 1630 | > 10000 | 
c1cnnc(Cn2ccc3ncc(Nc4cc([C@@H]5CCOC5)[nH]n4)nc32)c1 (single isomer, unassigned) [Example 25, (S)-5-(pyridazin-3-ylmethyl)-N-(5-(tetrahydrofuran-3-yl)-1H-pyrazol-3-yl)-5H-pyrrolo[2,3-b]pyrazin-3-amine or (R)-5-(pyridazin-3-ylmethyl)-N-(5-(tetrahydrofuran-3-yl)-1H-pyrazol-3-yl)-5H-pyrrolo[2,3-b]pyrazin-3-amine] | 128 | 2780 | 
CN1CCC[C@@H](Cn2ccc3ncc(Nc4cc(OC(F)F)[nH]n4)nc32)C1 [Example 28, (R)—N-(5-(difluoromethoxy)-1H-pyrazol-3-yl)-5-((1-methylpiperidin-3-yl)methyl)-5H-pyrrolo[2,3-b]pyrazin-3-amine] | 112 | 8310 | 
FC(F)Oc1cc(Nc2cnc3ccn(C[C@H]4CCCNC4)c3n2)n[nH]1 [Example 9, (S)—N-(5-(difluoromethoxy)-1H-pyrazol-3-yl)-5-(piperidin-3-ylmethyl)-5H-pyrrolo[2,3-b]pyrazin-3-amine] | 4.9 | 1730 | 
C[C@@H](C1CCOCC1)n1ccc2ncc(Nc3cc(OC(F)F)[nH]n3)nc21 [Example 11, (S)—N-(5-(difluoromethoxy)-1H-pyrazol-3-yl)-5-(1-(tetrahydro-2H-pyran-4-yl)ethyl)-5H-pyrrolo[2,3-b]pyrazin-3-amine] | 1.2 | 71.7 | 
COc1cc(Nc2cnc3ccn(Cc4cccnn4)c3n2)n[nH]1 [Example 22, N-(5-methoxy-1H-pyrazol-3-yl)-5-(pyridazin-3-ylmethyl)-5H-pyrrolo[2,3-b]pyrazin-3-amine] | 6.9 | 207 | 
OC1(Cn2ccc3ncc(Nc4cc(OC(F)F)[nH]n4)nc32)CCOCC1 [Example 14, 4-((3-((5-(difluoromethoxy)-1H-pyrazol-3-yl)amino)-5H-pyrrolo[2,3-b]pyrazin-5-yl)methyl)tetrahydro-2H-pyran-4-ol] | 137 | 325 | 
c1cncc(Cn2ccc3ncc(Nc4cc([C@@H]5CCOC5)[nH]n4)nc32)c1 (single isomer, unassigned) [Example 17, (S)-5-(pyridin-3-ylmethyl)-N-(5-(tetrahydrofuran-3-yl)-1H-pyrazol-3-yl)-5H-pyrrolo[2,3-b]pyrazin-3-amine or (R)-5-(pyridin-3-ylmethyl)-N-(5-(tetrahydrofuran-3-yl)-1H-pyrazol-3-yl)-5H-pyrrolo[2,3-b]pyrazin-3-amine] | 5.8 | 624 | 
Cc1cc(Nc2cnc3ccn(Cc4cccnc4)c3n2)n[nH]1 [Example 19, N-(5-methyl-1H-pyrazol-3-yl)-5-(pyridin-3-ylmethyl)-5H-pyrrolo[2,3-b]pyrazin-3-amine] | 35.7 | 4450 | 
COc1cc(Nc2cnc3ccn(Cc4cccnc4)c3n2)n[nH]1 [Example 18, N-(5-methoxy-1H-pyrazol-3-yl)-5-(pyridin-3-ylmethyl)-5H-pyrrolo[2,3-b]pyrazin-3-amine] | 10.3 | 660 | 

From patent publication US20260217719A1, “CDK2 INHIBITORS” (BLUEPRINT MEDICINES CORPORATION, priority 2023, published 2026)
